From patent US4863748A, “Dietary products and uses comprising methylsulfonylmethane” (priority 1986, dated 1989)

Assays:
Sclerotium rolfsii = assay: Antifungal activity; assay type: cell-based; conditions: 500 ppm
From the text: (§1) While not as potent or toxic to microbial populations as specific drug agents, by reason of its extremely low host systemic toxicity, methylsulfonylmethane contrasts sharply with present antiinfective therapeutants and methodology. It is doubtful if chemical resistance will develop with infective agents controlled by high, but safe, systemic levels of methylsulfonylmethane.

Phytophthora cinnamomi = assay: Antifungal activity; assay type: cell-based; conditions: 500 ppm
From the text: as §1

Aspergillus niger = assay: Antifungal activity; assay type: cell-based; conditions: 500 ppm
From the text: as §1

Enterobius (pin worms) = assay: Pin worm (Enterobius) infection in laboratory mice (Examples 19 and 28(c)); assay type: in vivo; conditions: 2% by wt. in feed and drinking water
From the text: (§2) Laboratory mice determined by fecal cast examination to have pin worms were given commercial feed and drinking water, ad lib, both of which contained 2% by wt. methylsulfonylmethane. […] The blood level of methylsulfonylmethane in one animal examined exceeded 30 ppm.
(§3) Laboratory mice determined by fecal cast examination to have pin worms were given 2% by wt. of methylsulfonylmethane in both their commercial feed and drinking water, ad lib.

[1] = as above; assay type: in vivo; conditions: mouse, blood, po; one animal examined; 2% by wt. in feed and drinking water; read-out: blood level of methylsulfonylmethane
From the text: as §2, §3

[2] = tested on: pruritis, acne, acne rosacea; assay: Connective tissue and dermatological disorders (Example 13); assay type: in vivo, human
From the text: Teenagers found methylsulfonylmethane in cola drinks a particularly acceptable satisfactory combination when treating acne. With rosacea, visual improvement was much slower.

intractable pain = assay: Pain in humans (Example 31); assay type: in vivo, human
From the text: The following patients suffering from intractable pain were given methylsulfonylmethane orally in the amounts and for the period of time set forth in the table below: […]

nail growth = assay: Nail growth in dogs (Example 6); assay type: in vivo, dog (female labradors); conditions: 5% in drinking water, 45 days
From the text: Rate of nail growth is an indication of the overall health of an animal. To determine the effect of methylsulfonylmethane on nail growth, two litter mate female labradors, age 8.5 months, were maintained in side by side straw bedded cages. Before any testing, the front paws of each dog were embedded in partially set plaster of paris, allowing the animals to exert full body weight, thereby obtaining good clear impressions of paw pads and nail length.
Each dog was fed Purina dog chow and water ad lib for 45 days. One of the dogs, (Animal A) had no ration change and the other (Animal B) was supplied only with water containing 5% of methylsulfonylmethane dissolved therein. After 45 days, plaster impressions of the front paws of each dog were again taken. Once the plaster had fully hardened the pre- and post-testing castings of each animal were compared. The straw bedding protected both animals from normal nail wear. On visual examination, the nails of Animal B, the animal receiving methylsulfonylmethane in its water, were obviously longer. Upon comparing the castings it was seen that Animal B had nails that averaged about 1/8 inch greater length than those of Animal A.

leg cramps = assay: Leg cramps in marathon runner (Example 27); assay type: in vivo, human; conditions: 15 mg/kg/day, at least 7 days
Procedure: Before a marathon race, administer methylsulfonylmethane to the runner for at least 7 days at the rate of 15 mg/kg/day.

[3] = tested on: nutritional secondary hyperparathyroidism with obvious epiphysitis; assay: Nutritional secondary hyperparathyroidism with epiphysitis in horses (Example 3); assay type: in vivo, horse; conditions: 12 grams twice daily in feed; conventional treatment 60-90 days minimum
From the text: Calcium/phosphorous balance is critical in the horse, where these elements comprise roughly 70% of the mineral content of the horse's body. Calcium deficiency, or the reverse, viz., phosphorous excess, is undesirable. Phosphorous excess in feed will decrease intestinal absorption, resulting in lowered blood plasma calcium. One result is a stimulation in the dietary deficiency condition called nutritional secondary hyperparathyroidism. Calcium denied for bone development results in an enlargement of structurally defective fibrous tissue. In horse leg bones, it is called epiphysitis when stress inflammation is presented.
Two colts and four fillies were studied, all diagnosed as having nutritional secondary hyperparathyroidism with obvious epiphysitis. Each was provided with 12 grams of methylsulfonylmethane twice daily in a bran/molasses blend intermixed with their standard dry feed prior to feeding. The supplemented feed was well accepted. All signs and symptoms of this nutritional deficiency disease was corrected in from seven to ten days. Conventional treatment for correcting dietary calcium deficiency requires a minimum of 60-90 days before relief from inflammation is obtained. Except for the added methylsulfonylmethane, there was no change in the diet of these […] horses. The added dietary factor corrected this easily recognizable dietary deficiency in all of the horses.

[4] = tested on: gum inflammation and oral mucosa; assay: Oral hygiene (Example 11); assay type: in vivo, human
mood and depression = assay: Mental normalcy (Example 16); assay type: in vivo, human
Procedure: Students reported that while taking methylsulfonylmethane, their ability to concentrate is enhanced. Methylsulfonylmethane therefore is useful in conjunction with CNS therapeutants. The most useful application for methylsulfonylmethane seen to date in the field of mental normalizing is as an aid to the terminally ill, to relieve anxiety and depression.
To a chronically or terminally ill patient suffering from mental depression, administer […] body weight of methylsulfonylmethane daily, in tablet or capsule form, dissolved in water or a cold beverage, or admixed in a cold food. Within 12 hours to 2 days, a significant improvement in the mental attitude of the patient will be noted.

sun and wind burn = assay: Sun and wind burn (Example 23); assay type: in vivo, human; conditions: 0.5-2 gm/day, about 4 hours exposure; companions severely burned
[5] = tested on: emphysema and lung tumor respiratory deficiency; assay: Treatment of lung dysfunction (Example 29); assay type: in vivo, human
Procedure: Seven human subjects with respiratory deficiency were given methylsulfonylmethane by the oral route in amounts ranging from 250-1,500 mg/day, in single or divided units. Five presented emphysema believed associated with cigarette smoking. Two presented tumor involvement of the lung with additional function impairment due to pleural fluid accumulation.
Two of five subjects with emphysema had prior cardiorespiratory function tests and follow-up evaluations at six and eight weeks after starting a course of 500 mg/day orally of methylsulfonylmethane.
Prior to and during the test period, at approximately two-week intervals, all presenting emphysema were required to walk a measured distance compatible with their physical resources. […] The lung cavity fluid problem of each subject disappeared during the first months of the test period.

CS(C)(=O)=O [methylsulfonylmethane]
antiparasitic (antifungal) activity (Sclerotium rolfsii): good antiparasitic activity
antiparasitic (antifungal) activity (Phytophthora cinnamomi): good antiparasitic activity
antiparasitic (antifungal) activity (Aspergillus niger): good antiparasitic activity
worms and eggs in fecal cast after 17 days (Enterobius (pin worms)): free of worms and eggs
concentration at 408 h [1]: > 30000 ng/mL
response of pruritis and acne ([2]; about 100-1000 mg per day): respond promptly
response of dermatological problems ([2]; diet supplemented): respond favorably
visual improvement with rosacea ([2]; in vivo): much slower
time before telangiectasis diminished ([2]; subject three, 500 mg daily): at least several weeks
Results (intractable pain; A. B., 69 F, Deg. Arth., 0.5 bid × 18 months): pain relief
Results (intractable pain; B. A., 63 F, Deg. Arth., 0.25 g qid): pain relief
Results: pain relief (intractable pain; C. A., 62 M, Bursitis Chronic, 0.25 g bid × 3 months): 50%
Results (intractable pain; D. B., 35 M, Low back pain, 0.5 g qid × 9 months): pain relief
Results: muscle pain (intractable pain; I. B., 62 F, Multiple Sclerosis, 0.5 bid × 18 months): reduction
Results (intractable pain; M. A., 55 F, Rh. Arth., 0.25 g bid × 9 months): pain relief
Results (intractable pain; N. B., 62 M, Tendonitis, 0.25 g qid): reduced pain
Results (intractable pain; P. A., 61 F, Deg. Arth., 1 g 4×/day × 19 months): pain relief
greater average nail length vs Animal A (nail growth): about 1/8
likelihood of severe leg cramp during or after race (leg cramps): significantly reduced
time to correction of all signs and symptoms [3]: seven to ten
sense of taste ([4]; critical observers): improved
sense of smell ([4]; gargle, two subjects with restricted sense of smell): sharpening of this sense
bad breath associated with smoking or food ([4]; in water, saline solution or oral hygiene product): reduced or eliminated
viscosity of the mucous ([4]; subjects with viscid mucoid nasopharyngeal discharge): reduction in the viscosity of the mucous
time to significant improvement in mental attitude (mood and depression; 1000 mg/kg body weight daily, chronically or terminally ill patient): Within 12 hours to 2 days
alertness (mood and depression; reported by individuals): increased alertness
depression frequency (mood and depression; reported by individuals): very infrequent depression
mood changes (mood and depression; reported by individuals): a plateau of mood changes
ability to concentrate (mood and depression; students): enhanced
time to relief of depression (mood and depression; subjects intermittently on antidepression medication, days with prior medication): within hours rather than days
suffering from sun and wind exposure (sun and wind burn): suffered only mildly
cardiorespiratory function values, in particular arterial oxygen tension ([5]; 500 mg/day orally, two emphysema subjects, six and eight weeks): both had values in the normal range
comfortable walking distance ([5]; emphysema sufferers, alone or with 1000 mg ascorbic acid/day, within 2-4 weeks): at least doubled
alertness, comfort and outlook ([5]; two subjects with lung tumors): more alert, comfortable, and with a better outlook and attitude
lung cavity fluid problem ([5]; two subjects with lung tumors, first months): disappeared
